The results in this text go back to patent publication US8936809B2, “Method for treating prostate diseases based on local delivery of active substances” (Lidds AB, priority 2005, dated 2015).

By Cmax is commonly meant the peak of the concentration-time curve. As a reminder, the half-life is how long it takes for the measured level to halve.

The nature of data set [1]: Plasma pharmacokinetics and tissue level after controlled release implant into bulbourethral gland of male sheep (Example 2). It is filed as in vivo. Particulars: three moths after the injection.
The nature of data set [2]: in vivo. Particulars: male, Labrador, dog, iv, 25 mg. As to the method: First, four male dogs (H1-H4) (Labrador, approx. 1 year of age and weight 30 kg) were given 2-hydroxy-flutamide (25 mg) by single bolus doses intravenously during 30 seconds. The intravenous solution base was sterile saline […], sterile polyethylene glycol 400 46% and ethanol (95%) 6%. Blood samples of 1.0 ml were taken from the Cephalic vein at 5, 10, 15, 30, 60, 90, 120, 240, 360, and 600 minutes. The blood samples were immediately centrifuged at 3000 rpm and the plasma samples were frozen at −80° C. until analysis.
Quantification of 2-hydroxy-flutamide in plasma and tissue samples was done by HPLC-MS. HPLC was performed with a Surveyor HPLC system equipped with a CTC Pal autosampler. The analytical column was a Zorbax Eclipse XDB-18 (2.1 mm×50 mm, particle size 5 μm) connected to a guard column. The eluent consisted of solvent A (aqueous formic acid 0.1%) and B (acetonitrile), a linear gradient from 25 to 90% of solvent B in 5 minutes was applied. The proportion of solvent B was then lowered to 25% in one minute and was allowed to equilibrate at this level for two minutes prior to the next injection. The volumetric flow-rate was 200 μL/min and the injection volume was 20 μL. The HPLC column outlet was coupled to a TSQ Quantum Ultra tandem triple quadrupole mass spectrometer (ThermoFinnigan, San José, Calif., USA). The transition of m/z 291 [M-H]^−→205 was used for 2-hydroxy-flutamide and m/z 316 [M-H]^−→273 was used for nilutamide (internal standard). The limit of quantification was 0.50 ng/ml in dog plasma. Calibration samples were prepared by spiking blank plasma samples with 100 μL of solutions of 2-hydroxy-flutamide at different concentrations. […] The accuracies of the analytical runs were calculated as 100*(mean determined concentration in QC sample/spiked concentration) % and the intra-run precisions were calculated as the relative standard deviation (RSD %) of the determined concentrations at each QC level. […]

For `CC(C)(O)C(=O)Nc1ccc([N+](=O)[O-])c(C(F)(F)F)c1` [2-hydroxy-flutamide], the “levels in prostate gland” value in data set [1] is “possible to quantify”. The compound also came in with a Cmax in data set [2] (Cmax) of 835 ng/mL. Moreover, the half-life in data set [2] (elimination half-life) was 1.75 ± 0.2 h; in data set [2] (t1/2), 1.9 h.
